Results taken from paper PMC10401651, “Characterization of Uranyl (UO2^2+) Ion Binding to Amyloid Beta (Aβ) Peptides: Effects on Aβ Structure and Aggregation” (ACS Chemical Neuroscience, 2023).

Experiments:
[1] = molecular target: T1, Aβ40 peptides (Homo sapiens, UniProt P05067); test: CD spectroscopy on the Aβ40 secondary structure
T1 construct: namely, the Aβ40 peptide; purchased AlexoTech AB (Umeå, Sweden); host or cells: recombinant
Description: The CD spectra for Aβ40 monomers in aqueous buffer display spectra with minima around 196–198 nm (Figure 5B,E), which is typical for a random coil conformation. […] The difference spectrum is not conclusive but might represent β-sheet conformation (Figure 5C).
CD measurements were carried out on a Chirascan CD spectrometer from Applied Photophysics Ltd. (U.K). Samples containing 600 μL of 10 μM Aβ40 peptide in 20 mM phosphate buffer, at either pH 7.3 or pH 5.1, were placed in a quartz cuvette with a 2 mm pathlength. CD spectra were recorded at 20 °C between 192 and 250 nm using steps of 0.5 nm and a sampling time of 5 s per data point. […] All data was processed with the Chirascan Pro-Data v.4.4.1 software (Applied Photophysics Ltd., U.K.), including smoothing with a ten-point smoothing filter. 50 mM SDS detergent was added to some of the samples as SDS micelles constitute a simple model for bio-membranes.[125],[126] Aβ peptides are known to insert their central and C-terminal segments as α-helices into SDS micelles, while the N-terminal Aβ segment remains unstructured outside the micelle surface.[19],[125] Because the critical micelle concentration for SDS is 8.2 mM in water at 25 °C,[152] micelles clearly formed under the experimental conditions. With approximately 62–65 SDS molecules per micelle,[156] 50 mM SDS yields a micelle concentration slightly below 1 mM, i.e., much higher than the concentration of Aβ peptides. This means that each micelle will generally contain no more than one Aβ peptide, which effectively prevents Aβ aggregation and ensures that uranyl interactions are with monomeric Aβ peptides. […] Even though 50 mM SDS would efficiently denature most folded proteins, such denaturing effects are not relevant for small intrinsically disordered peptides such as Aβ (in monomeric form).

[2] = molecular target: T2, Aβ42 oligomers (Homo sapiens, UniProt P05067); test: FTIR spectroscopy of SDS-stabilized Aβ42 oligomer structure
T2 construct: Synthetic lyophilized wt Aβ (1–42) peptides, abbreviated as Aβ42; purchased JPT Peptide Technologies (Germany); host or cells: synthetic peptide
T2 sequence (P05067 672-713 limits assumed): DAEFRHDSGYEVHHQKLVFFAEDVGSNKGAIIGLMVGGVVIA
Description: The secondary structures of Aβ42 oligomers formed with different SDS and uranyl concentrations were studied with FTIR spectroscopy, where the amide I region (1700–1600 cm^–1) is very sensitive to changes in the protein backbone conformation, including differences in β-sheet structures.[133]−[135] […] This split pattern of IR bands in the amide I region is typical for anti-parallel β-sheet structures.[136]−[138]
Treatment of Aβ42 peptides with low concentrations (≤7 mM) of SDS, i.e., below the critical micelle concentration for SDS, which is 8.2 mM in water at 25 °C,[152] leads to the formation of stable and homogeneous Aβ42 oligomers of certain sizes and conformations.[131],[132],[153] […] The absorbance for each fraction at 280 nm was measured with a NanoDrop instrument (Eppendorf, Germany), and peptide concentrations were determined using a molar extinction coefficient of 1280 M^–1 cm^–1 for the single Tyr in Aβ42.[155] […]
FTIR spectra of the SDS-stabilized Aβ42 oligomers (prepared as described in Section 5.2) were recorded in transmission mode on a Tensor 37 FTIR spectrometer (Bruker Optics, Germany) equipped with a sample shutter and a liquid nitrogen-cooled MCT detector. […] FTIR spectra were recorded at room temperature in the 1900–800 cm^–1 range, with 300 scans for both background and sample spectra, using a 6 mm aperture and at a resolution of 2 cm^–1. […]

[3] = molecular target: T2, Aβ42 oligomers; test: BN-PAGE analysis of SDS-stabilized Aβ42 oligomer formation; format: biochemical
Description: Treatment of Aβ42 peptides with low concentrations (≤7 mM) of SDS, i.e., below the critical micelle concentration for SDS, which is 8.2 mM in water at 25 °C,[152] leads to the formation of stable and homogeneous Aβ42 oligomers of certain sizes and conformations.[131],[132],[153] To prepare such oligomers, size exclusion chromatography (SEC) was initially used to purify synthetic Aβ42 peptides into monomeric form. First, 1 mg of lyophilized Aβ42 powder was dissolved in […] of DMSO. Next, a […] HiTrap desalting column (GE Healthcare, Uppsala) was equilibrated with a 5 mM NaOH solution (pH = 12.3) and washed with a solution of 10–15 mL of 5 mM NaOD, pD = 12.7.[154] The peptide solution in DMSO was applied to the column, followed by an injection of 1.25 mL of 5 mM NaOD. The collection of peptide fractions in 5 mM NaOD on ice was started at a […] flow rate. Ten fractions of 1 mL volumes were collected in 1.5 mL Eppendorf tubes. The absorbance for each fraction at 280 nm was measured with a NanoDrop instrument (Eppendorf, Germany), and peptide concentrations were determined using a molar extinction coefficient of 1280 M^–1 cm^–1 for the single Tyr in Aβ42.[155] The peptide fractions were flash-frozen in liquid nitrogen, covered with argon gas on top in 1.5 mL Eppendorf tubes, and stored at −80 °C until used. SDS-stabilized Aβ42 oligomers of two well-defined sizes (approximately tetramers and dodecamers) were prepared according to a previously published protocol,[131] but in D2O, at a 4-fold lower peptide concentration and without the original dilution step.[132]
Thus, 4–16% Bis–Tris Novex gels (Thermo Fisher Scientific, USA) were loaded with 10 μL samples containing Aβ42 oligomer solutions alongside alongside the Amersham high MW calibration kit for native electrophoresis (GE Healthcare, USA). The gels were run at 4 °C using the electrophoresis system according to the Invitrogen instructions (Thermo Fisher Scientific, USA) and then stained with the Pierce Silver Staining Kit according to the manufacturer’s instructions (Thermo Fisher Scientific, USA). […]

T1 sequence (P05067 672-711 limits assumed): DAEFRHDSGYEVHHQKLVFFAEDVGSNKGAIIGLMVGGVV

Compound: CC(=O)[O-].CC(=O)[O-].[O]=[U+2]=[O] [uranyl ions, uranyl acetate]
- structural transition of Aβ40 (CD) ([1]; 50 mM SDS micelles, pH 5.1, 10 μM Aβ40): structural conversion from α-helix to a random coil
- changes in the Aβ40 CD spectrum ([1]; 50 mM SDS micelles, pH 7.3, 10 μM Aβ40): no changes at all
- structural transition of Aβ40 (CD) ([1]; aqueous buffer pH 5.1, 10 μM Aβ40, 2-256 μM uranyl acetate, 20 °C): conversion from random coil to β-sheet
- structural effect on Aβ40 (CD), compared with pH 5.1 ([1]; aqueous buffer pH 7.3, 10 μM Aβ40, 2-256 μM uranyl acetate, 20 °C): weaker
- β-sheet main band position (amide I, FTIR) ([2]; AβO0.05%SDS oligomers in PBS, 1 mM uranyl acetate (1628.3 without)): 1627.8 cm^–1
- β-sheet main band position (amide I, FTIR) ([2]; AβO0.2%SDS oligomers, 0.01, 0.1, and 1 mM uranyl acetate (1629.9 without)): 1629.8 cm^–1
- formation of AβO0.05%SDS oligomers (BN-PAGE) ([3]; 0.05% SDS, 10, 100, 1000 μM uranyl acetate, 80–100 μM Aβ42): no well-defined uniform oligomers were observed
- concentration required for full disruption of homogeneous AβO0.05%SDS oligomers ([3]; 0.05% SDS, Aβ42 oligomers): 10 µM
- formation of AβO0.2%SDS oligomers (BN-PAGE) ([3]; 0.2% SDS, 10, 100, 1000 μM uranyl, 80–100 μM Aβ42): gradually lower amounts of stable AβO0.2%SDS oligomers
